This is an account of results in ChEMBL document CHEMBL5321272 (J Med Chem, 2023).

Calls of active or inactive are those of the source. The rule behind the calls is not given here.

Series [1] concerns the target hERG (KCNH2) (Homo sapiens, UniProt Q12809). The experiment in a line: Inhibition of hERG expressed in HEK293 cells at 20 uM by whole cell patch clamp analysis. The class given is toxicity, cell-based. The following applies: HEK293 cells expressing hERG. Background: Block of hERG is tested as a sign of cardiac risk.
In series [2] the target is Mast/stem cell growth factor receptor Kit (Homo sapiens, UniProt P10721). The experiment in a line: Inhibition of c-KIT (unknown origin) using peptide substrate TK-S and ATP as substrate incubated for 1 hr by HTRF assay. The class given is toxicity. In general terms: TR-FRET usually uses a lanthanide donor and a delayed reading to cut background.
Series [3] is described as follows: Selectivity ratio of IC50 for inhibition of c-KIT (unknown origin) to IC50 for inhibition of FLT3 D835Y mutant (unknown origin).
In series [4] the test system is BaF3. The experiment in a line: Antiproliferative activity against mouse BaF3 cells harboring FLT3 D835V mutant assessed as reduction in cell viability incubated for 72 hrs by CellTiter 96 Aqueous One Solution Cell Proliferation Assay. The class given is functional, cell-based.
For series [5], the system named is BaF3. The experiment in a line: Antiproliferative activity against mouse BaF3 cells harboring FLT3 D835F mutant assessed as reduction in cell viability incubated for 72 hrs by CellTiter 96 Aqueous One Solution Cell Proliferation Assay. The class given is functional, cell-based.
For series [6], the system named is BaF3. The experiment in a line: Antiproliferative activity against mouse BaF3 cells harboring FLT3 F691L mutant assessed as reduction in cell viability incubated for 72 hrs by CellTiter 96 Aqueous One Solution Cell Proliferation Assay. The class given is functional, cell-based.
Series [7] can be described thus: Half life in ICR mouse at 10 mg/kg, po. The class given is ADME, organism-based. The following applies: in vivo.
A short description of series [8]: Tmax in ICR mouse at 10 mg/kg, po. The class given is ADME, organism-based. The following applies: in vivo.
Series [9] is described as follows: Cmax in ICR mouse at 10 mg/kg, po. The class given is ADME, organism-based. The arrangement: dose 10 mg/kg, route po. The following applies: in vivo.
Series [10] can be described thus: AUC (last) in ICR mouse at 10 mg/kg, po. The class given is ADME, organism-based. The arrangement: dose 10 mg/kg, route po. The following applies: in vivo.
Series [11] can be described thus: AUC (infinity) in ICR mouse at 10 mg/kg, po. The following applies: in vivo. The class given is ADME, organism-based. The arrangement: dose 10 mg/kg, route po.
Series [12] can be described thus: MRT (infinity) in ICR mouse at 10 mg/kg, po. The class given is ADME, organism-based. The following applies: in vivo.
Series [13] has as its target Receptor-type tyrosine-protein kinase FLT3 (Homo sapiens, UniProt P36888, D835Y).
Description: Inhibition of FLT3 D835Y mutant (unknown origin) using peptide substrate TK-S and ATP as substrate incubated for 1 hr by HTRF assay
In series [14] the target is T1, Serine/threonine-protein kinase Chk1 (Homo sapiens, UniProt O14757).
T1 sequence (O14757 whole entry): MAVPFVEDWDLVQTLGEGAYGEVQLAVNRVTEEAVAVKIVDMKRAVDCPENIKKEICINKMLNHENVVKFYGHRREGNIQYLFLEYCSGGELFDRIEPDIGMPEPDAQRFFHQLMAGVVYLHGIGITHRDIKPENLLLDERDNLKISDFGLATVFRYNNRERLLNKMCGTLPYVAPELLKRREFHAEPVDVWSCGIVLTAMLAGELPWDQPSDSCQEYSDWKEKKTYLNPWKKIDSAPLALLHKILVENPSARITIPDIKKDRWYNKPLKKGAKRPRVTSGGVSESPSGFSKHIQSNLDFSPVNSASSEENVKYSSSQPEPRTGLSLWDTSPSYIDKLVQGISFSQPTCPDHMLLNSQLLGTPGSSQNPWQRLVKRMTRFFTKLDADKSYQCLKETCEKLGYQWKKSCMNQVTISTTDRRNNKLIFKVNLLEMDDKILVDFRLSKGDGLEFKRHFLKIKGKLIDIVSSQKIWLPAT
Description: Inhibition of CHK1 (unknown origin) using peptide substrate S1 and ATP as substrate incubated for 1 hr by HTRF assay

In series [15] the test system is MV4-11. The experiment in a line: cells. The following applies: Homo sapiens, MV4-11, 72 h.
Description: Antiproliferative activity against human MV4-11 cells assessed as reduction in cell viability incubated for 72 hrs by CellTiter 96 Aqueous One Solution Cell Proliferation Assay

hERG (KCNH2), sequence (Q12809 whole entry): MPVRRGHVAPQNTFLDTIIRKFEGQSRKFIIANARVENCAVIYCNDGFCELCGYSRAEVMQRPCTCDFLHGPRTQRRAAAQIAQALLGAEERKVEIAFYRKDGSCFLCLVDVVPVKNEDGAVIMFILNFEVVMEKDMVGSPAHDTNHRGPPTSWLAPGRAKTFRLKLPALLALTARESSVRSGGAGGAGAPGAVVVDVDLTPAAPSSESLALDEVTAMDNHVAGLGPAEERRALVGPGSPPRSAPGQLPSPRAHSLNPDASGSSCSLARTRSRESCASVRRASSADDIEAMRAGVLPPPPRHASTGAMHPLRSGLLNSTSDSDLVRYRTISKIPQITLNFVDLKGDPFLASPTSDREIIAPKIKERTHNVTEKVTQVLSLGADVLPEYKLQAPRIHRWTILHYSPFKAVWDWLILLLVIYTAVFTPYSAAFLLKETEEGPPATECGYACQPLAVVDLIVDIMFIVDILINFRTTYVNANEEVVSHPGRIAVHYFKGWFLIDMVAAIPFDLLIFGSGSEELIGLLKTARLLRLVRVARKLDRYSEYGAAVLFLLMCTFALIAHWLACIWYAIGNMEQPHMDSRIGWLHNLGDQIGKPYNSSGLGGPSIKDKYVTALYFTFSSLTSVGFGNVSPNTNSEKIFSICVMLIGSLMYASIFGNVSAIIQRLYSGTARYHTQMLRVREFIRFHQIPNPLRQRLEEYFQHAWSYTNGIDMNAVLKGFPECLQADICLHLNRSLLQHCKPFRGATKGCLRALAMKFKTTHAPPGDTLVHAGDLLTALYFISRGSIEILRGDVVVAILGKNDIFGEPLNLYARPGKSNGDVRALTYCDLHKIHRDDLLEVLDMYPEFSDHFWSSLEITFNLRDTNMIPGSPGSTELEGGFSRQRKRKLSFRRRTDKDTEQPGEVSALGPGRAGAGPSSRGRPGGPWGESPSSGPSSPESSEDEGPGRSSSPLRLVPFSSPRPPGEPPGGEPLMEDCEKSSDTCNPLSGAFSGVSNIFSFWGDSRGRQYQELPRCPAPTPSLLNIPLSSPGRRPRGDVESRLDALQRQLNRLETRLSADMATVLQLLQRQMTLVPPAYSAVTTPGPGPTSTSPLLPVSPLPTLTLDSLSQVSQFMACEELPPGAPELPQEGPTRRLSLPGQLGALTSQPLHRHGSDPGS
Mast/stem cell growth factor receptor Kit, sequence (P10721 whole entry): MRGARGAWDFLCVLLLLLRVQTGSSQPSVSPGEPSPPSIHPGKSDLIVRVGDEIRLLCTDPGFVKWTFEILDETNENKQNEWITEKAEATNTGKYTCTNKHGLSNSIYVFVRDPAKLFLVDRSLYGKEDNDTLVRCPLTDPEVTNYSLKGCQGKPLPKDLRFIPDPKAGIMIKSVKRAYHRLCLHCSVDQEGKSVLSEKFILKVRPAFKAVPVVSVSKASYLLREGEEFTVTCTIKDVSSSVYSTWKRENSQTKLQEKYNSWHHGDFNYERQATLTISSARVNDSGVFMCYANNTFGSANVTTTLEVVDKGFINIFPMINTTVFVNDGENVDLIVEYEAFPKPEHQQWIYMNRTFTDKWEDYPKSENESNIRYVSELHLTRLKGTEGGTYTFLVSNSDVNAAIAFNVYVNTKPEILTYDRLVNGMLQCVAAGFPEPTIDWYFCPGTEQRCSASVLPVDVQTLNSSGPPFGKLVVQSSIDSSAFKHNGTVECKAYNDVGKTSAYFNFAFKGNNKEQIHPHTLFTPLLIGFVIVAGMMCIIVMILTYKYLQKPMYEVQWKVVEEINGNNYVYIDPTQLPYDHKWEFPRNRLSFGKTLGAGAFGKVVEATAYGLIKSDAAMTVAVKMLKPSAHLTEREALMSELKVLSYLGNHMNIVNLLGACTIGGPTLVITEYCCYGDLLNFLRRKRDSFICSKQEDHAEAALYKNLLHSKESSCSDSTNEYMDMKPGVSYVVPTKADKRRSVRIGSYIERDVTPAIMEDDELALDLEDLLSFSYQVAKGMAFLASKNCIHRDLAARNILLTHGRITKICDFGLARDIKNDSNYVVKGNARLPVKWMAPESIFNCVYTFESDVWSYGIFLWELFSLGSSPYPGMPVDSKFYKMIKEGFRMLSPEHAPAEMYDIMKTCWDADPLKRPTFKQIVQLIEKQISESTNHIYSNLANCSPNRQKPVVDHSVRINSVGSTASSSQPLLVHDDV

As for `C[C@@H](O)C(=O)N1CCc2cc(Nc3ncc(C(F)(F)F)c(N[C@H]4CC[C@@H](N)CC4)n3)ccc2C1`, the inhibition (usually the share of the control response that was lost under treatment) at 20 µM in series [1] is 14.6%. Besides, the IC50 (as a rule, the concentration at which inhibition is half-maximal) in series [2] was determined as 1800 nM; in [13], 1.25 nM; in series [14] it was 10.8 nM; in series [15], 0.21 nM. Moreover, the Ratio IC50 in series [3] is 1440. Moreover, the outcome in [4], in [5] and in series [6] was Active. Also, in series [7], the half-life – broadly, the time in which the quantity being followed falls by half – was 0.96 h. In addition, the Tmax – broadly, the time at which the peak concentration occurs – in series [8] was determined as 2 h. Besides, the peak level in series [9] (Cmax) was 80.1 ng/mL. The AUC(0-t) (in general, exposure summed from dosing to a finite time, without extrapolation to infinity) in series [10] amounted to 220 ng·h/mL. The AUC(0-inf) (commonly total exposure, with the tail of the curve extrapolated) in [11] was 226 ng·h/mL. In addition, the MRT inf (commonly a mean duration of stay, worked out from the concentration-time curve) in series [12] was found to be 2.05 h.
Turning to `CC(C)(O)C(=O)N1Cc2ccc(Nc3ncc(C(F)(F)F)c(N[C@H]4CC[C@@H](N)CC4)n3)cc2C1`, in series [1], the inhibition at 20 µM was determined as 17.5%. Moreover, the IC50 came out at 3090 nM in series [2], 1.35 nM in series [13], 13.5 nM in [14] and 0.5 nM in series [15]. The Ratio IC50 in [3] turned out to be 2290. The result in series [4], in series [5] and in series [6] was Active. The compound further had a half-life in [7] of 0.63 h. The Tmax in series [8] amounted to 2 h. Further, in series [9], the highest concentration (Cmax) – broadly, the maximum level reached in the sampled fluid or tissue – stood at 263 ng/mL. Moreover, the AUC(0-t) in series [10] was 577 ng·h/mL. In series [11], this compound had an AUC(0-inf) of 604 ng·h/mL. This compound also showed an MRT inf in series [12] of 1.92 h.
